Test results: patent US20230123334A1, “AMINO LIPID COMPOUND, PREPARATION METHOD THEREFOR, AND APPLICATION THEREOF” (SHENZHEN SHENXIN BIOTECHNOLOGY CO., LTD., priority 2020, published 2023)

System: HEK293 cells
Assay: Preliminary screening as DNA vectors, GFP transfection of HEK293 cells
Format: cell-based
Conditions: HEK293 cells; lipid/DOPE liposome with 75 ng plasmid DNA (psin-EGFP-IRES-Puro); number of cells expressing GFP divided by total number of nuclei (Hoechst)
Outline: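 HEK293 cells in DMEM/10% FBS transfected with 75 ng EGFP plasmid per well complexed with amino lipid/DOPE liposomes in pH 5.6 sodium acetate. Hoechst nuclear stain added 20-24 h post-transfection, then cells cultured another 20-24 h. Confocal imaging gives GFP-positive cells as % of total nuclei.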

Structure (SMILES)	Absolute DNA transfection efficiency in HEK293 cells
CCCCCCCCCCCCN(CCCCCCCCCCCC)c1nc(NCCCCCCCCCCC)nc(NCCN(CC)CC)n1 [Compound N112N12D7]	0.4%

Same assay, conditions: amino lipid/DOPE liposome with 75 ng plasmid DNA (psin-EGFP-IRES-Puro); number of GFP-expressing cells divided by total nuclei (Hoechst)

Structure (SMILES)	Absolute DNA transfection efficiency in HEK293 cells
CCCCCCCCCSc1nc(NCCCCCCC)nc(NCCN(CC)CC)n1 [S9N7 D7]	15.2%
CCCCCCSc1nc(NCCN2CCCC2)nc(SCCCCCC)n1 [S6S6 D3]	4.4%
CCCCCCCCCNc1nc(NCCCN2CCOCC2)nc(SCCCCCCCC)n1 [S8N9 D8]	14.8%
CCCCCCCSc1nc(NCCCN(C)C)nc(SCCCCCCC)n1 [S7S7 D6]	10.3%
CCCCCCCCSc1nc(NCCCCCC)nc(NCCN2CCOCC2)n1 [S8N6 D2]	0.2%
CCCCCCCCCCCCCCCCCCSc1nc(NCCCN2CCOCC2)nc(N(CCCCCCCCCCCC)CCCCCCCCCCCC)n1 [S18^2N12 D8]	0.0%
CCCCCCCCCCCCCCCCSc1nc(NCCCCCCCCCCCCC)nc(NCCN2CCCC2)n1 [S16N13 D3]	1.5%
CCCCCCCCCCCCCCCCCCSc1nc(NCCN2CCN(C)CC2)nc(SCCCCCC)n1 [S6S18 D5]	15.1%
CCCCCCCCCCCNc1nc(NCCN2CCCCC2)nc(SCCCCCCCCCCC)n1 [S11N11 D4]	1.0%
CCCCCCCSc1nc(NCCN2CCCCC2)nc(SCCCCCC)n1 [S6S7 D4]	2.0%
CCCCCCCCCCCCCCCCSc1nc(NCCN(C)C)nc(N(CCCCCCCCCCCC)CCCCCCCCCCCC)n1 [S16^2N12 D1]	0.0%
CCCCCCCCCCSc1nc(NCCCN2CCOCC2)nc(SCCCCCCCC)n1 [S8S10 D8]	13.7%
CCCCCCCCCSc1nc(NCCCCCCC)nc(NCCN2CCOCC2)n1 [S9N7 D2]	4.4%
CCCCCCCCCCCCCCSc1nc(NCCCCCCCCC)nc(NCCN(CC)CC)n1 [S14N9 D7]	10.6%
CCCCCCCCCCCCCCCCCCNc1nc(NCCN2CCCC2)nc(SCCCCCCCCC)n1 [S9N18 D3]	33.8%
CCCCCCCCNc1nc(NCCCN2CCN(C)CC2)nc(SCCCCCCCC)n1 [S8N8 D9]	7.4%
CCCCCCCCCCCCSc1nc(NCCCCCCCCC)nc(NCCCN(C)C)n1 [S12N9 D6]	37.0%
CCCCCCCCCCCCCCSc1nc(NCCCCCCCCCCC)nc(NCC2CCN(C)CC2)n1 [S14N11 D10]	9.0%
CCCCCCCCCCCCCCCCNc1nc(NCCN2CCN(C)CC2)nc(SCCCCCCCC)n1 [S8N16 D5]	14.3%
CCCCCCCCCSc1nc(NCCCCCCC)nc(NCC2CCN(C)CC2)n1 [S9N7 D10]	9.3%
CCCCCCCCCNc1nc(NCCCN2CCOCC2)nc(SCCCCCCC)n1 [S7N9 D8]	4.6%
CCCCCCCCCCCCCCCNc1nc(NCCCN(C)C)nc(SCCCCCCCCCC)n1 [S10N15 D6]	9.1%
CCCCCCCCCCCCCCCSc1nc(NCCN(CC)CC)nc(N(CCCCCCCCCCCC)CCCCCCCCCCCC)n1 [S15^2N12 D7]	0.2%
CCCCCCCCCCCCN(CCCCCCCCCCCC)c1nc(NCCN(CC)CC)nc(SCCCCCC)n1 [S6^2N12 D7]	0.3%

Structure (SMILES)	Absolute DNA transfection efficiency in HEK293 cells
CCCCCCSc1nc(NCCN(CC)CC)nc(SCCCCCC)n1 [S6S6 D7]	23.0%
CCCCCCCCCCCCCCCCSc1nc(NCCCCCCCCCCC)nc(NCCN2CCN(C)CC2)n1 [S16N11 D5]	9.5%
CCCCCCCCCCCCCCCCNc1nc(NCCN(CC)CC)nc(SCCCCCCC)n1 [S7N16 D7]	6.4%
CCCCCCCCCCCCNc1nc(NCCCN2CCOCC2)nc(SCCCCCC)n1 [S6N12 D8]	4.0%
CCCCCCCCCCCCCNc1nc(NCCCN2CCN(C)CC2)nc(SCCCCCCCC)n1 [S8N13 D9]	27.9%
CCCCCCCCCCCCCCCCCCNc1nc(NCCN2CCCC2)nc(SCCCCCCCCCCCCCC)n1 [S14N18 D3]	1.7%
CCCCCCCCCCCCCCCCNc1nc(NCCN2CCN(C)CC2)nc(SCCCCCCCCCCC)n1 [S11N16 D5]	6.8%
CCCCCCCCCCCCSc1nc(NCCCCCCCCCCC)nc(NCCN2CCN(C)CC2)n1 [S12N11 D5]	8.0%
CCCCCCCCCCCCCCCSc1nc(NCCCCCCCCCCCC)nc(NCCCN(C)C)n1 [S15N12 D6]	6.4%
CCCCCCCCCNc1nc(NCCN(CC)CC)nc(SCCCCCCCCC)n1 [S9N9 D7]	49.8%
CCCCCCCCCCCCCCCNc1nc(NCCCN2CCN(C)CC2)nc(SCCCCCCCC)n1 [S8N15 D9]	12.4%
CCCCCCCCCCCCCNc1nc(NCCCN(C)C)nc(SCCCCCC)n1 [S6N13 D6]	12.9%
CCCCCCCCCCCCCCCCCCSc1nc(NCC2CCN(C)CC2)nc(SCCCCCC)n1 [S6S18 D10]	34.7%
CCCCCCCCNc1nc(NCCCN2CCOCC2)nc(SCCCCCC)n1 [S6N8 D8]	0.0%
CCCCCCCCCNc1nc(NCC2CCN(C)CC2)nc(SCCCCCCCC)n1 [S8N9 D10]	36.3%
CCCCCCCCCCCCSc1nc(NCCN2CCN(C)CC2)nc(SCCCCCCCC)n1 [S8S12 D5]	24.8%
CCCCCCCCCCCCCCCSc1nc(NCCCCCCCCCCCC)nc(NCCN2CCOCC2)n1 [S15N12 D2]	0.0%
CCCCCCCCCCSc1nc(NCCN2CCN(C)CC2)nc(SCCCCCCC)n1 [S7S10 D5]	10.6%
CCCCCCCCCCCCSc1nc(NCCN2CCCCC2)nc(SCCCCCCC)n1 [S7S12 D4]	9.5%
CCCCCCCCCCCNc1nc(NCCCN2CCOCC2)nc(SCCCCCCCC)n1 [S8N11 D8]	13.7%
CCCCCCCSc1nc(NCCN(CC)CC)nc(SCCCCCC)n1 [S6S7 D7]	22.2%
CCCCCCCCCCCCCCCNc1nc(NCC2CCN(C)CC2)nc(SCCCCCCCCC)n1 [S9N15 D10]	19.0%
CCCCCCCSc1nc(NCCCCCC)nc(NCC2CCN(C)CC2)n1 [S7N6 D10]	6.3%
CCCCCCCCCCCCCCCCCCSc1nc(NCCCCCCCCC)nc(NCCCN(C)C)n1 [S18N9 D6]	19.5%

Structure (SMILES)	Absolute DNA transfection efficiency in HEK293 cells
CCCCCCCCCCCCCCCSc1nc(NCCCCCC)nc(NCC2CCN(C)CC2)n1 [S15N6 D10]	26.5%
CCCCCCCCCCCCCCCCNc1nc(NCCCN2CCN(C)CC2)nc(SCCCCCCCCCC)n1 [S10N16 D9]	5.0%
CCCCCCCCCCCCNc1nc(NCCCN2CCN(C)CC2)nc(SCCCCCC)n1 [S6N12 D9]	38.8%
CCCCCCCCCCCCCCCCCCNc1nc(NCCCN2CCN(C)CC2)nc(SCCCCCCCCCCCCCCCCCC)n1 [S18N18 D9]	0.0%
CCCCCCCCCCCSc1nc(NCCN(CC)CC)nc(SCCCCCCCC)n1 [S8S11 D7]	10.3%
CCCCCCCCCCCCCCCCCCSc1nc(NCCCCCCCC)nc(NCC2CCN(C)CC2)n1 [S18N8 D10]	11.7%
CCCCCCCCCCCCCCCCCCNc1nc(NCCN2CCN(C)CC2)nc(SCCCCCC)n1 [S6N18 D5]	15.4%
CCCCCCCCCCCCCCCCSc1nc(NCCCCCCCCCCC)nc(NCCCN2CCN(C)CC2)n1 [S16N11 D9]	9.6%
CCCCCCCCCCCCCCCCCCSc1nc(NCCCCCCC)nc(NCCCN2CCN(C)CC2)n1 [S18N7 D9]	9.3%
CCCCCCNc1nc(NCCN2CCCCC2)nc(SCCCCCC)n1 [S6N6 D4]	0.0%
CCCCCCCCCCCCCNc1nc(NCCN2CCOCC2)nc(SCCCCCCCC)n1 [S8N13 D2]	19.7%
CCCCCCCCCCCCCCSc1nc(NCCCCCC)nc(NCCN2CCN(C)CC2)n1 [S14N6 D5]	21.7%
CCCCCCCCCCCCCCCSc1nc(NCCCCCCCCCCCCC)nc(NCCCN(C)C)n1 [S15N13 D6]	2.7%
CCCCCCCCCCCCCCCSc1nc(NCCCCCCC)nc(NCCN2CCCC2)n1 [S15N7 D3]	19.7%
CCCCCCCCCCCCCCCCCCSc1nc(NCCN(CC)CC)nc(SCCCCCCC)n1 [S7S18 D7]	7.3%
CCCCCCCCCSc1nc(NCCCCCCCC)nc(NCC2CCN(C)CC2)n1 [S9N8 D10]	17.2%
CCCCCCCCCCCCCCCCSc1nc(NCCN2CCCC2)nc(SCCCCCCC)n1 [S7S16 D3]	6.3%
CCCCCCCCCCCCCNc1nc(NCCN(CC)CC)nc(SCCCCCCCC)n1 [S8N13 D7]	8.9%
CCCCCCCCCCCCCCCNc1nc(NCCCN2CCN(C)CC2)nc(SCCCCCCCCC)n1 [S9N15 D9]	10.9%
CCCCCCCCCCCCCCCCCCSc1nc(NCCCCCCCCCCC)nc(NCCCN2CCOCC2)n1 [S18N11 D8]	1.3%
CCCCCCCCCCCCCCCCCCNc1nc(NCCN2CCCCC2)nc(SCCCCCCCCCCCCCCC)n1 [S15N18 D4]	0.4%
CCCCCCCCCCCCCCCCCCNc1nc(NCCCN(C)C)nc(SCCCCCCC)n1 [S7N18 D6]	18.4%
